Source: US20240101531A1, “PYRIDINAMINE DERIVATIVES AND THEIR USE AS POTASSIUM CHANNEL MODULATORS” (Xenon Pharmaceuticals Inc., priority 2022, published 2024)
Counter-ions that a name gives are not always drawn.

The compounds below were run against human KV7.2/KV7.3 (Homo sapiens (Human), UniProt O43525+O43526) (assay: Potassium flux assay (IPG-2 AM dye)). Settings: TREX HEK 293 or HEK 293 cells expressing human KV7.2/KV7.3; arithmetic mean values.
Type: cell-based
In short: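 EC50 from 16 concentrations (2-fold dilutions, top 30 μM), scaled between DMSO baseline and a known KV7.x modulator maximum. Signal is IPG-2 AM fluorescence (ex 530/em 558 nm) after 10 mM KCl challenge buffer addition, following 20 min room-temperature compound exposure of HEK 293 or TREX HEK 293 cells stably expressing human KV7.2/KV7.3.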
With `FC1(F)CN[C@@H](COc2ccc3c(Nc4ccc(Cl)nc4)nccc3c2)C1` [Example 227, (R)—N-(6-chloropyridin-3-yl)-6-((4,4-difluoropyrrolidin-2-yl)methoxy)isoquinolin-1-amine trifluoroacetate] the EC50 was 1000 to 10000 nM.
Work on `Cc1ncc(Nc2nccc3cc(OCC4(C#N)COC4)ccc23)cn1` [Example 228, 3-(((1-((2-methylpyrimidin-5-yl)amino)isoquinolin-6-yl)oxy)methyl)oxetane-3-carbonitrile] yielded an EC50 of 1000 to 10000 nM.
`Fc1c(OCC2CC2)ccc2c(Nc3ccc(Cl)nc3)nccc12` [Example 229, N-(6-chloropyridin-3-yl)-6-(cyclopropylmethoxy)-5-fluoroisoquinolin-1-amine] gave an EC50 of 1000 to 10000 nM.
`Clc1ccc(Nc2nccc3cc(NCC4CC4)ccc23)cn1` [Example 230, N^1-(6-chloropyridin-3-yl)-N^6-(cyclopropylmethyl)isoquinoline-1,6-diamine formate] gave an EC50 of 10000 to 30000 nM.
With `FC(F)(F)C1(COc2ccc3c(Nc4ccc(Cl)nc4)nccc3c2)CC1` [Example 231, N-(6-chloropyridin-3-yl)-6-((1-(trifluoromethyl)cyclopropyl)methoxy)isoquinolin-1-amine formate] the EC50 was less than 1000 nM.
Work on `Fc1c(NCC2CC2)ccc2c(Nc3ccc(Cl)nc3)nccc12` [Example 232, N^1-(6-chloropyridin-3-yl)-N^6-(cyclopropylmethyl)-5-fluoroisoquinoline-1,6-diamine] yielded an EC50 of 1000 to 10000 nM.
In the case of `Cc1ncc(Nc2nccc3c(F)c(OCC4CC4)ccc23)cn1` [Example 233, 6-(cyclopropylmethoxy)-5-fluoro-N-(2-methylpyrimidin-5-yl)isoquinolin-1-amine], the EC50 is reported as 10000 to 30000 nM.
Work on `N#CC1(COc2ccc3c(Nc4ccc(Cl)nc4)nccc3c2)CC(F)(F)C1` [Example 234, 1-(((1-((6-chloropyridin-3-yl)amino)isoquinolin-6-yl)oxy)methyl)-3,3-difluorocyclobutane-1-carbonitrile] yielded an EC50 of less than 1000 nM.
`Cc1ncc(Nc2nccc3cc(OCC4(C#N)CC(F)(F)C4)ccc23)cn1` [Example 235, 3,3-difluoro-1-(((1-((2-methylpyrimidin-5-yl)amino)isoquinolin-6-yl)oxy)methyl)cyclobutane-1-carbonitrile formate] was tested, and the EC50 was less than 1000 nM.
Compound `COCCOCCOc1ccc2c(Nc3ccc(Cl)nc3)nccc2c1` [Example 236, N-(6-chloropyridin-3-yl)-6-(2-(2-methoxyethoxy)ethoxy)isoquinolin-1-amine] has an EC50 of 1000 to 10000 nM.
`C[C@H](Oc1ccc2c(Nc3ccc(Cl)nc3)nccc2c1)c1ccncc1` [Example 237, (S)—N-(6-chloropyridin-3-yl)-6-(1-(pyridin-4-yl)ethoxy)isoquinolin-1-amine] gave an EC50 of less than 1000 nM.
For `OCC1(COc2ccc3c(Nc4ccc(Cl)nc4)nccc3c2)CC1` [Example 238, (1-(((1-((6-chloropyridin-3-yl)amino)isoquinolin-6-yl)oxy)methyl)cyclopropyl)methanol], the EC50 was less than 1000 nM.
In the case of `FC1(COc2ccc3c(Nc4ccc(Cl)nc4)nccc3c2)CCOCC1` [Example 239, N-(6-chloropyridin-3-yl)-6-((4-fluorotetrahydro-2H-pyran-4-yl)methoxy)isoquinolin-1-amine], the EC50 is reported as less than 1000 nM.
For `OC(COc1ccc2c(Nc3ccc(Cl)nc3)nccc2c1)C(F)(F)F` (stereo not drawn) [Example 240, 3-((1-((6-chloropyridin-3-yl)amino)isoquinolin-6-yl)oxy)-1,1,1-trifluoropropan-2-ol], the EC50 was 1000 to 10000 nM.
With `Cc1ncc(Nc2nccc3cc(OCc4cnoc4)ccc23)cn1` [Example 241, 6-(isoxazol-4-ylmethoxy)-N-(2-methylpyrimidin-5-yl)isoquinolin-1-amine] the EC50 was less than 1000 nM.
`Clc1ncc(Nc2nccc3cc(OCc4cnoc4)ccc23)cn1` [Example 242, N-(2-chloropyrimidin-5-yl)-6-(isoxazol-4-ylmethoxy)isoquinolin-1-amine] gave an EC50 of less than 1000 nM.
With `Oc1ccc2c(Nc3cnc(Cl)nc3)nccc2c1` [Example 243, 1-((2-chloropyrimidin-5-yl)amino)isoquinolin-6-ol] the EC50 was 10000 to 30000 nM.
In the case of `Cn1cc(CNc2ccc3c(Nc4ccc(Cl)nc4)nccc3c2)cn1` [Example 244, N′-(6-chloropyridin-3-yl)-N^6-((1-methyl-1H-pyrazol-4-yl)methyl)isoquinoline-1,6-diamine], the EC50 is reported as 1000 to 10000 nM.
In the case of `CC1(CNc2ccc3c(Nc4ccc(Cl)nc4)nccc3c2)COC1` [Example 245, N′-(6-chloropyridin-3-yl)-N^6-((3-methyloxetan-3-yl)methyl)isoquinoline-1,6-diamine], the EC50 is reported as 1000 to 10000 nM.
Compound `CN(C)C(=O)/C=C/c1ccc2c(Nc3ccc(Cl)nc3)nccc2c1` [Example 246, (E)-3-(1-((6-chloropyridin-3-yl)amino)isoquinolin-6-yl)-N,N-dimethylacrylamide] has an EC50 of 1000 to 10000 nM.
For `Fc1cc2c(Nc3ccc(Cl)nc3)nccc2cc1OCC1(F)CC1` [Example 247, N-(6-chloropyridin-3-yl)-7-fluoro-6-((1-fluorocyclopropyl)methoxy)isoquinolin-1-amine], the EC50 was 10000 to 30000 nM.
`Clc1ccc(Nc2nccc3cc(CNc4cn[nH]c4)ccc23)cn1` [Example 248, 6-(((1H-pyrazol-4-yl)amino)methyl)-N-(6-chloropyridin-3-yl)isoquinolin-1-amine] gave an EC50 of 1000 to 10000 nM.
In the case of `Cn1cc(OCc2ccc3c(Nc4ccc(Cl)nc4)nccc3c2)cn1` [Example 249, N-(6-chloropyridin-3-yl)-6-(((1-methyl-1H-pyrazol-4-yl)oxy)methyl)isoquinolin-1-amine], the EC50 is reported as 1000 to 10000 nM.
`CN(Cc1ccc2c(Nc3ccc(Cl)nc3)nccc2c1)c1cn[nH]c1` [Example 250, N-(6-chloropyridin-3-yl)-6-((methyl(1H-pyrazol-4-yl)amino)methyl)isoquinolin-1-amine] gave an EC50 of less than 1000 nM.
With `Cn1cc(COc2cnc3c(Nc4ccc(Cl)nc4)nccc3c2)cn1` [Example 252, N-(6-chloropyridin-3-yl)-3-((1-methyl-1H-pyrazol-4-yl)methoxy)-1,7-naphthyridin-8-amine] the EC50 was less than 1000 nM.
`Cn1cc(COc2cnc3c(Nc4cnc(Cl)nc4)nccc3c2)cn1` [Example 253, N-(2-chloropyrimidin-5-yl)-3-((1-methyl-1H-pyrazol-4-yl)methoxy)-1,7-naphthyridin-8-amine] showed an EC50 of less than 1000 nM.
For `N#CC1(COc2cnc3c(Nc4cnc(Cl)nc4)nccc3c2)CC1` [Example 254, 1-(((8-((2-chloropyrimidin-5-yl)amino)-1,7-naphthyridin-3-yl)oxy)methyl)cyclopropane-1-carbonitrile], the EC50 was less than 1000 nM.
For `Clc1ccc(Nc2nccc3cc(OCC4CC4)cnc23)cn1` [Example 255, N-(6-chloropyridin-3-yl)-3-(cyclopropylmethoxy)-1,7-naphthyridin-8-amine], the EC50 was 1000 to 10000 nM.
With `Cc1ccc(Nc2nccc3cc(OCC4CC4)cnc23)cn1` [Example 256, 3-(cyclopropylmethoxy)-N-(6-methylpyridin-3-yl)-1,7-naphthyridin-8-amine] the EC50 was 1000 to 10000 nM.
`Cc1ncc(Nc2nccc3cc(OCC4CC4)cnc23)cn1` [Example 257, 3-(cyclopropylmethoxy)-N-(2-methylpyrimidin-5-yl)-1,7-naphthyridin-8-amine] was tested, and the EC50 was 1000 to 10000 nM.
For `Cc1ncc(Nc2nccc3cc(OCc4cnn(C)c4)cnc23)cn1` [Example 258, 3-((1-methyl-1H-pyrazol-4-yl)methoxy)-N-(2-methylpyrimidin-5-yl)-1,7-naphthyridin-8-amine], the EC50 was 1000 to 10000 nM.
For `CC1(COc2cnc3c(Nc4ccc(Cl)nc4)nccc3c2)COC1` [Example 259, N-(6-chloropyridin-3-yl)-3-((3-methyloxetan-3-yl)methoxy)-1,7-naphthyridin-8-amine], the EC50 was 1000 to 10000 nM.
Compound `Clc1ccc(Nc2nccc3cc(OCCCc4cn[nH]c4)ccc23)cn1` [Example 260, 6-(3-(1H-pyrazol-4-yl)propoxy)-N-(6-chloropyridin-3-yl)isoquinolin-1-amine] has an EC50 of less than 1000 nM.
Work on `O=S1(=O)CC[C@@H](Oc2ccc3c(Nc4ccc(Cl)nc4)nccc3c2)C1` [Example 261, (R)-3-((1-((6-chloropyridin-3-yl)amino)isoquinolin-6-yl)oxy)tetrahydrothiophene 1,1-dioxide] yielded an EC50 of 1000 to 10000 nM.
With `O=S1(=O)CC[C@H](Oc2ccc3c(Nc4ccc(Cl)nc4)nccc3c2)C1` [Example 262, (S)-3-((1-((6-chloropyridin-3-yl)amino)isoquinolin-6-yl)oxy)tetrahydrothiophene 1,1-dioxide] the EC50 was 1000 to 10000 nM.
With `Clc1ccc(Nc2nccc3cc(OC4CCOC4)ccc23)cn1` (stereo not drawn) [Example 263, N-(6-chloropyridin-3-yl)-6-((tetrahydrofuran-3-yl)oxy)isoquinolin-1-amine] the EC50 was less than 1000 nM.
Compound `C[C@]1(O)CC[C@H](Oc2ccc3c(Nc4ccc(Cl)nc4)nccc3c2)CC1` [Example 264, trans-4-((1-((6-chloropyridin-3-yl)amino)isoquinolin-6-yl)oxy)-1-methylcyclohexan-1-ol] has an EC50 of 1000 to 10000 nM.
`C[C@]1(O)CC[C@@H](Oc2ccc3c(Nc4ccc(Cl)nc4)nccc3c2)CC1` [Example 265, cis-4-((1-((6-chloropyridin-3-yl)amino)isoquinolin-6-yl)oxy)-1-methylcyclohexan-1-ol] was tested, and the EC50 was less than 1000 nM.
In the case of `Clc1ccc(Nc2nccc3cc(Oc4cccnc4)ccc23)cn1` [Example 266, N-(6-chloropyridin-3-yl)-6-(pyridin-3-yloxy)isoquinolin-1-amine], the EC50 is reported as 1000 to 10000 nM.
Work on `Clc1ccc(Nc2nccc3cc(Oc4cn[nH]c4)ccc23)cn1` [Example 267, 6-((1H-pyrazol-4-yl)oxy)-N-(6-chloropyridin-3-yl)isoquinolin-1-amine] yielded an EC50 of 1000 to 10000 nM.
`CS(=O)(=Nc1ccc2c(Nc3ccc(Cl)nc3)nccc2c1)C1CC1` (stereo not drawn) [Example 268, ((1-((6-chloropyridin-3-yl)amino)isoquinolin-6-yl)imino)(cyclopropyl)(methyl)-λ^6-sulfanone] gave an EC50 of less than 1000 nM.
`CS(=O)(CC1CC1)=Nc1ccc2c(Nc3ccc(Cl)nc3)nccc2c1` (stereo not drawn) [Example 269, ((1-((6-chloropyridin-3-yl)amino)isoquinolin-6-yl)imino)(cyclopropylmethyl)(methyl)-λ^6-sulfanone] showed an EC50 of 1000 to 10000 nM.
